In US8637040B2, “Genus-wide chlamydial peptide vaccine antigens” (priority 2008, dated 2014):

Tests used:
[1] = system: C. trachomatis-infected HEp2 cells; experiment: Indirect immunofluorescence of immune sera on infected HEp2 cells; assay type: cell-based, human; conditions: sera 1:40 dilution, FITC anti-mouse IgG
Description: Micrographs of HEp2 cells infected with C. trachomatis are immunostained (by indirect immunofluorescence) with sera (1:40 dilution) from mice immunized with the designated peptides (A-E) or soluble. mAb2 (F). FITC anti-mouse IgG was the detecting antibody. Arrows point to distinct differences in targets of the immune sera. Antibodies in panels A-C recognized EB and RB and possibly some matrix material in the inclusion. Antibodies in D-E also recognized targets in the inclusion matrix and inclusion membrane, similar to immune sera raised against the older vaccine candidate, the entire mAb2 (F). 40× original magnification. Samples are counterstained with Evans blue.
HEp2 cells were infected with C. trachomatis were subjected to cytocentrifugation to deposit them onto microscope slides. After fixation (MeOH) they were stained with sera (1:40 dilution) from mice immunized with the indicated peptides or with soluble mAb2. The binding of the antibodies to the cells was detected using a fluorescent (FITC-labeled) secondary Ab, an anti-mouse IgG. Results appear in FIGS. 9A-F.

human sera = experiment: ELISA of human serum samples on 4 peptides (Example XI); assay type: binding
Experimental: (§1) Blood was collected prior to immunizations and prior to the two boosts. Sera were tested in ELISA. The ELISA method used in the present examples, in which many if not all the parameters and conditions may be varied or modified in ways that are completely conventional in the art, is described below. • 1. 96 well plates (Immulon HBX4) were coated with 50 μl of diluted antigen (peptides at 1 μg/well made in carbonate buffer) and incubated overnight at 4° C. • 2. Unbound antigen was removed by flicking the contents of the plate into a sink without further washing. • 3. Non-specific binding was blocked or prevented by adding 300 μL/well of 4% BSA/PBS-Tween 20 (0.05%). This was allowed to incubate for 2 hour at room temperature. • 4. The plates were washed once with PBS-Tween 20 (0.05%) and 50 μl of primary antibody was added per well at appropriate dilutions. When using serum, the starting dilution was 1:40 and was further diluted by doublings to 1:80, 1:160, and 1:320 (or higher as desired). Plates were incubated for 1 hour at 37° C. • 5. Plates were washed three times with PBS-Tween (0.05%) as above and 100 μl of secondary antibody was added per well at appropriate dilutions. For alkaline phosphatase-conjugated goat anti-mouse IgG-AP, a dilution of 1:500 was used here. Plates were incubated for 1 hour at 37° C. • 6. Plates were again washed three times as above and 200 μl of substrate solution for Alkaline phosphatase (p-nitro phenyl phosphate or pNPP) was added at a concentration of 5 mg/ml. The color reaction was read in an automated microplate reader at a frequency of […] and the absorbance (or optical density) was registered (referred to as A405 or OD405) Several important observations were made in these tests against the 4 peptides: (a) all 4 peptides were immunogenic and induced increasing anti-peptide responses with subsequent boosts in all mice (except in one non-responder) (FIG. 3). […] See also FIG. 16A-16B
Human sera were tested by PCR for expression of several chlamydial genes, by IHC against C. trachomatis-infected cells and by ELISA against several of the peptides of the present invention. Results are shown in Table 7 (below) which include results from PCR-studies for presence of DNA encoding the chlamydial Major Outer Membrane Protein (MOMP) in human peripheral blood mononuclear cells (PBMC) (which are primarily lymphocytes and monocytes) and cervical swabs
Also shown is IHC staining of C. trachomatis-infected human HEp2 cells and binding of antibodies in the patient samples to four peptides of the present invention (Pep4, 7, 8, and 10) in ELISA.

Pep4, Pep7, Pep8, Pep10 = experiment: Cross-reactivity between peptides in ELISA; assay type: binding; conditions: sera of mice immunized with a single peptide
Experimental: as §1
Both of these are category #1 peptides. […] That supports the notion that CDR1 and CDR3 of mAb2 are antigenically distinct.

C trachomatis = experiment: DFA staining of vaginal smears after challenge of peptide-immunized mice; assay type: in vivo, mouse; conditions: mice immunized three times at 100 μg doses; days 7 and 14 post-challenge
Description: Mice are challenged with a human biovar of C trachomatis (K or E serovars for urogenital infections; C or B serovars for ocular infection).
Groups of 4-8 mice are “masked” as to pretreatment before challenge with live elementary bodies (EB). At weekly intervals through at least 4 wks, vaginal (or conjunctival) swabs are collected for isolation culture and direct fluorescence antibody staining for EB.
Using the murine models described above, the present inventors immunized mice with one of the four peptides (Pep4, 7, 8 or 10) administered three times at 100 μg doses. Results of direct fluorescent antibody (DFA) staining are summarized for days 7 and 14 post-challenge in FIGS. 10-11.

chlamydia = experiment: Gross anatomical observation of genital tract inflammation after challenge; assay type: in vivo, mouse; conditions: female mice primed and boosted twice SC, necropsy ~28 days post-challenge, vs adjuvant-only control
Description: FIG. 15A-15C is a set of three photographs showing the gross morphology of tissues of the female reproductive tract of mice immunized and then challenged 28 days earlier with Pep4 or Pep7. Mice had been primed and boosted twice SC, as above, and were challenged with chlamydia 2 weeks later, rechallenged and sacrificed 4 weeks after re-challenge. Inflamed genital tracts outlined in dashed lines.
Genital tracts were exposed at necropsy ˜28 days post-challenge to score inflammatory changes (and then removed for histological analysis). […] Representative examples for recipients of Peptides 4 and 7 are shown in the center and right panels, respectively. Yellow arrows point to uterine horns (which are further demarcated with dashed lines). It is evident that the peptide immunogens reduced the gross pathology of the genital tract even weeks after challenge. This has been reproduced in a second experiment in which control mice received an irrelevant peptide instead of Peptides 4 or 7. Based on what is known in the art from other contexts, the histopathological results are expected to be consistent with these gross anatomical observations.

| Sequence | structures recognized by immune sera in infected cells [1] | ELISA 1:40 on 4 peptides Scale: 1+-3+ (human sera; human serum sample # 1) | ELISA 1:40 on 4 peptides Scale: 1+-3+ (human sera; human serum sample # 2) | ELISA 1:40 on 4 peptides Scale: 1+-3+ (human sera; human serum sample # 3) | ELISA 1:40 on 4 peptides Scale: 1+-3+ (human sera; human serum sample # 5) | ELISA 1:40 on 4 peptides Scale: 1+-3+ (human sera; human serum sample # 7) | ELISA 1:40 on 4 peptides Scale: 1+-3+ (human sera; human serum sample # 8) | ELISA 1:40 on 4 peptides Scale: 1+-3+ (human sera; human serum sample # 9) | ELISA 1:40 on 4 peptides Scale: 1+-3+ (human sera; human serum sample # 10) | ELISA 1:40 on 4 peptides Scale: 1+-3+ (human sera; human serum sample # 12) | ELISA 1:40 on 4 peptides Scale: 1+-3+ (human sera; human serum sample # 13) | ELISA 1:40 on 4 peptides Scale: 1+-3+ (human sera; human serum sample # 16) | ELISA 1:40 on 4 peptides Scale: 1+-3+ (human sera; human serum sample # 18) | ELISA 1:40 on 4 peptides Scale: 1+-3+ (human sera; human serum sample # 21) | ELISA 1:40 on 4 peptides Scale: 1+-3+ (human sera; human serum sample # 22) | ELISA 1:40 on 4 peptides Scale: 1+-3+ (human sera; human serum sample # 23) | ELISA 1:40 on 4 peptides Scale: 1+-3+ (human sera; human serum sample # 24) | ELISA 1:40 on 4 peptides Scale: 1+-3+ (human sera; human serum sample # 26) | other results |
| --- | --- | --- | --- | --- | --- | --- | --- | --- | --- | --- | --- | --- | --- | --- | --- | --- | --- | --- | --- |
| RYDVGGDHYYFTMD [Pep10] | recognized targets in the inclusion matrix and membrane | 2 | 1 | 2.5 | 1.5 | 1 | 3 | 3 | 2 | 2 | 2 | 1 | 2 | 3 | 2 | 1 | 2 | 1.5 |  |
| GYTFTDYSMH [Pep8] | recognized targets in the inclusion matrix and membrane | 2 | 1 | 2.5 | 2 | 1 | 3 | 3 | 2 | 2 | 2 | 1.5 | 3 | 3 | 1.5 | 1.5 | 2 | 2 | cross-reactivity of raised Abs with Peps 4, 7 or 10 (ELISA) (Pep4, Pep7, Pep8, Pep10): did not cross-react; bacterial shedding measured by DFA staining (C trachomatis): reduced bacterial shedding |
| HALMPATAVASL [Pep7] | recognized EB and metabolically active, non-infectious reticulate bodies (RB) | 1.5 | 1 | 2.5 | 2 | 0.75 | 3 | 3 | 2 | 1.5 | 2 | 1.5 | 3 | 2 | 1.5 | 1.5 | 1.5 | 2 | cross-reactivity of raised Abs with Pep4 (ELISA) (Pep4, Pep7, Pep8, Pep10): cross reacted; gross inflammation / pathology of the genital tract (chlamydia): not nearly as inflamed |
